From patent publication US9327025B2, “Enriched 10-boron composition for cancer therapy and a method of synthesizing the same” (priority 2012, dated 2016) come the findings set out here.

Where two headings read alike, the source gives them in different places.

Data set [1] concerns MDA-MB241 cell line (malignant breast cells). Particulars: 24 hours. On the procedure: MTT assay method was applied for evaluating the effects of Boron complex on MDA-MB241 cell line (malignant breast cells) in in vitro environment.
This is due to the fact that since food composition was used in the synthesis of the drug, tumor cells think that they are provided with food compostions. But after a while the number of cells will decrease by the drug. For different concentrations of Boron including 5 mg, 10 mg, 25 mg, 50 mg and 100 mg, these decreases are equal to 80, 50, 64, 79, and 36. After 48 hours similar results with little differences have been observed with 24 hours time interval.

For data set [2] the following is noted: cancerous mice; in vitro and in vivo tests.
Excerpt: In this research, a new smart drug, Enriched Boron-10 Calcium Fructo Borate (E^10BCFB), was investigated for using in cancer cells treatment in BNCT methods. […] E^10BCFB is in fact an artificial Calcium Fructo-Borate which is synthesized chemically with 10-Boron.
Data set [3] relates to breast cancer cells MDA-MB-231.

As to “Enriched 10-Boron Calcium Fructo Borate [E^10BCFB]”, the “decrease of the number of cells (MTT)” value was 80 in data set [1] (concentration of Boron 5 mg); 50 in data set [1] (concentration of Boron 10 mg); 64 in data set [1] (concentration of Boron 25 mg); 79 in data set [1] (concentration of Boron 50 mg); 36 in data set [1] (concentration of Boron 100 mg). Under “3 hours after injection of 41.1 mg complex per 30 gram animal weight”, the “concentration ratio of tumor to the 10-Boron concentration in the blood” value was “about 4.5”. In addition, for the setting “3 hours after intraperitoneal injection of 41.1 mg complex per 30 gram animal weight, blood”, the “concentration of 10-Boron in the blood” value is on record as “about 6.1 ppm”. Where the note is “3 hours after intraperitoneal injection of 41.1 mg complex per 30 gram animal weight, tumor”, the “accumulation of 10-Boron in tumor cells” value is “about 27 ppm”. In addition, the “safety of the drug” value in data set [2] was “safe”. In data set [3] (MDA-MB-231), the “growth of breast cancer cells” value was “prevents the growth of breast cancer cells”. Further, the Caspase-3 activity result in data set [3] (tumor cells treated with the drug) is “increases the Caspase-3 activity”.
